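Protocol summary: plate cells (96-well), add compound at 5 concentrations, incubate 48 h, interpolate endpoints linearly. Abbreviation: GI50, concentration required for 50% inhibition of growth.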 The source made the active and inactive calls. No stated cut-off is given here; in the data, active = GI50 up to about 1.1 µM and inactive = higher.
What was measured:
Assay in all cases: NCI-60 cell line screen, 48 h
[1] = system: A498
[2] = system: A549
[3] = system: ACHN
[4] = system: CAKI-1
[5] = system: HCC 2998
[6] = system: HOP-62
[7] = system: HT-29
[8] = system: M14
[9] = system: NCI-H226
[10] = system: NCI-H23
[11] = system: NCI/ADR-RES
[12] = system: OVCAR-4
[13] = system: OVCAR-5
[14] = system: OVCAR-8
[15] = system: SF-268
[16] = system: SK-MEL-28
[17] = system: SK-MEL-5
[18] = system: T47D
[19] = system: TK-10
[20] = system: UACC-62

| Compound | GI50 [1] | GI50 [2] | GI50 [3] | GI50 [4] | GI50 [5] | GI50 [6] | GI50 [7] | GI50 [8] | GI50 [9] | GI50 [10] | GI50 [11] | GI50 [12] | GI50 [13] | GI50 [14] | GI50 [15] | GI50 [16] | GI50 [17] | GI50 [18] | GI50 [19] | GI50 [20] |
| --- | --- | --- | --- | --- | --- | --- | --- | --- | --- | --- | --- | --- | --- | --- | --- | --- | --- | --- | --- | --- |
| Cc1nc(N)nc(N)c1-c1ccc(Cl)c(Cl)c1 [METOPRINE] | 21.6 µM (inactive) | 0.0325 µM (active) | 0.495 µM (active) | 5.18 µM (inactive) | 2.91 µM (inactive) | 1.12 µM (inactive) | 0.258 µM (active) | 0.162 µM (active) | > 33.3 µM (inactive) | 0.378 µM (active) | 1.1 µM (active) | 37.9 µM (inactive) | 14.2 µM (inactive) | 0.603 µM (active) | 1 µM (active) | 4.6 µM (inactive) | 0.409 µM (active) | 16.9 µM (inactive) | 9.2 µM (inactive) | 0.355 µM (active) |
| S=C(N/N=C(/c1ccccc1)c1ccccn1)Nc1ccccc1Cl | 1.13 µM (inactive) | 0.0946 µM (active) | 0.0153 µM (active) | 0.209 µM (active) | 0.673 µM (active) | 1.77 µM (inactive) | < 0.0227 µM (active) | < 0.0224 µM (active) | 0.0993 µM (active) | < 0.0175 µM (active) | < 0.01 µM (active) | 0.879 µM (active) | 0.0243 µM (active) | 0.0299 µM (active) | 0.179 µM (active) | 1.92 µM (inactive) | 0.121 µM (active) | < 0.01 µM (active) | 0.336 µM (active) | 0.101 µM (active) |
| O=c1ssc2c1Nc1c(ssc1=O)S2 | 11.9 µM (inactive) | 19.2 µM (inactive) | 16.6 µM (inactive) | 17.9 µM (inactive) | 15.1 µM (inactive) | 18.5 µM (inactive) | 24.3 µM (inactive) | 11.7 µM (inactive) | 23.4 µM (inactive) | 18.7 µM (inactive) | 19.6 µM (inactive) | 14.4 µM (inactive) | 17 µM (inactive) | 14.8 µM (inactive) | 16.2 µM (inactive) | 18.5 µM (inactive) | 15.7 µM (inactive) | 10.7 µM (inactive) | 16 µM (inactive) | 14 µM (inactive) |
| C=C(C(=O)O[C@H]1C(=O)C2=C(C)CCC3C(=C)C(=O)O[C@@H]3C2[C@]1(C)O)C1CC[C@]2(C)CCCC(=C)[C@H]2C1 (stereo not given in full) | 10.7 µM (inactive) | 8.89 µM (inactive) | 4.58 µM (inactive) | 8.71 µM (inactive) | 1.91 µM (inactive) | 8.32 µM (inactive) | 4.24 µM (inactive) | 7.62 µM (inactive) | 17.1 µM (inactive) | 7.35 µM (inactive) | 7.38 µM (inactive) | 5.36 µM (inactive) | 17.7 µM (inactive) | 4.36 µM (inactive) | 5.6 µM (inactive) | 5.92 µM (inactive) | 12.2 µM (inactive) | 4.25 µM (inactive) | 2.55 µM (inactive) | 1.9 µM (inactive) |
| CC(C)OC(=S)Nc1ccc(Cl)c(/C=N/OC(C)(C)C)c1 | 12.6 µM (inactive) | 16.9 µM (inactive) | 15.1 µM (inactive) | 15.1 µM (inactive) | 19.6 µM (inactive) | 19.5 µM (inactive) | 14.4 µM (inactive) | 19.9 µM (inactive) | 17.9 µM (inactive) | 18.5 µM (inactive) | 11.9 µM (inactive) | 18.1 µM (inactive) | 16 µM (inactive) | 12.3 µM (inactive) | 19.3 µM (inactive) | 21.7 µM (inactive) | 16.2 µM (inactive) | 15.7 µM (inactive) | 12.4 µM (inactive) | 16.4 µM (inactive) |
| O=Cc1cccc2c1Oc1c(cccc1C(=O)O)S2 | > 100 µM (inactive) | 23.6 µM (inactive) | 34.3 µM (inactive) | 81.1 µM (inactive) | 57.4 µM (inactive) | 49.9 µM (inactive) | > 100 µM (inactive) | > 100 µM (inactive) | > 100 µM (inactive) | > 100 µM (inactive) | 36 µM (inactive) | 98.4 µM (inactive) | > 100 µM (inactive) | 53.7 µM (inactive) | 48.3 µM (inactive) | > 100 µM (inactive) | 67.1 µM (inactive) | 83 µM (inactive) | > 100 µM (inactive) | > 100 µM (inactive) |
| COc1ccc(/C(=N/O)c2ccccc2-c2nc3ccccc3c(=O)n2-c2ccc(S(=O)(=O)Nc3ncccn3)cc2)cc1C | 20.4 µM (inactive) | 17.4 µM (inactive) | 14.4 µM (inactive) | 21.1 µM (inactive) | 10.2 µM (inactive) | 16.1 µM (inactive) | > 10 µM (inactive) | 17.1 µM (inactive) | > 10 µM (inactive) | 12 µM (inactive) | 11.6 µM (inactive) | 17.9 µM (inactive) | 24.5 µM (inactive) | 18.4 µM (inactive) | 16.7 µM (inactive) | 14.9 µM (inactive) | 12.8 µM (inactive) | 12.6 µM (inactive) | 21.8 µM (inactive) | 12.1 µM (inactive) |
| O[C@@H]1[C@H](OC2c3ccccc3-c3ccccc32)[C@H](OCc2ccccc2)[C@@H]2OC[C@H]1O2 | > 100 µM (inactive) | 34.6 µM (inactive) | > 100 µM (inactive) | > 100 µM (inactive) | 75.7 µM (inactive) | 25.8 µM (inactive) | > 100 µM (inactive) | > 100 µM (inactive) | > 100 µM (inactive) | > 100 µM (inactive) | > 100 µM (inactive) | 91 µM (inactive) | > 100 µM (inactive) | 39.6 µM (inactive) | 57.1 µM (inactive) | > 100 µM (inactive) | > 100 µM (inactive) | > 100 µM (inactive) | > 100 µM (inactive) | > 100 µM (inactive) |
| O=c1[nH]c2nc[nH]c2c(=O)n1C1CCCCC1 | > 100 µM (inactive) | > 100 µM (inactive) | > 100 µM (inactive) | > 100 µM (inactive) | > 100 µM (inactive) | > 100 µM (inactive) | > 100 µM (inactive) | > 100 µM (inactive) | > 100 µM (inactive) | > 100 µM (inactive) | > 100 µM (inactive) | > 100 µM (inactive) | > 100 µM (inactive) | > 100 µM (inactive) | > 100 µM (inactive) | > 100 µM (inactive) | > 100 µM (inactive) | > 100 µM (inactive) | > 100 µM (inactive) | > 100 µM (inactive) |
| COCOC1/C=C/CCCCC(=O)C(C)C#CC1 (stereo not given) | 10.7 µM (inactive) | 12.9 µM (inactive) | 6.67 µM (inactive) | 5.09 µM (inactive) | 7.89 µM (inactive) | 17.5 µM (inactive) | 3.37 µM (inactive) | 3.72 µM (inactive) | 17.2 µM (inactive) | 4.63 µM (inactive) | 4.18 µM (inactive) | 10.2 µM (inactive) | 12.8 µM (inactive) | 4.18 µM (inactive) | 15.1 µM (inactive) | 12.4 µM (inactive) | 8.87 µM (inactive) | 2.76 µM (inactive) | 8 µM (inactive) | 2.4 µM (inactive) |
| C=CCN1C(=O)/C(=C/c2ccc(OC)cc2)N=C1SC/C=C/C | 23.9 µM (inactive) | 18.9 µM (inactive) | 56.4 µM (inactive) | 84.5 µM (inactive) | 63.2 µM (inactive) | > 100 µM (inactive) | 33.7 µM (inactive) | 54.7 µM (inactive) | 53.7 µM (inactive) | 41.5 µM (inactive) | 39 µM (inactive) | 37.7 µM (inactive) | > 100 µM (inactive) | 31.8 µM (inactive) | 53.8 µM (inactive) | 87.7 µM (inactive) | 18.3 µM (inactive) | 12.6 µM (inactive) | > 100 µM (inactive) | 42.8 µM (inactive) |
| CN(C)CCCn1cnc2cc(Cl)c(Cl)cc21 | > 100 µM (inactive) | > 100 µM (inactive) | > 100 µM (inactive) | 64.3 µM (inactive) | 22 µM (inactive) | > 100 µM (inactive) | 72.3 µM (inactive) | 16.6 µM (inactive) | > 100 µM (inactive) | > 100 µM (inactive) | > 100 µM (inactive) | > 100 µM (inactive) | > 100 µM (inactive) | > 100 µM (inactive) | > 100 µM (inactive) | 17.9 µM (inactive) | 53.1 µM (inactive) | 59.7 µM (inactive) | 42.7 µM (inactive) | 27.7 µM (inactive) |
| COc1ccc(/N=N/C(=N\c2ccccc2)c2ccc(N(CCC#N)CCC#N)cc2)cc1 | 67.6 µM (inactive) | 49.2 µM (inactive) | > 100 µM (inactive) | 80.7 µM (inactive) | 33.2 µM (inactive) | 89.5 µM (inactive) | 47.9 µM (inactive) | 69.8 µM (inactive) | > 100 µM (inactive) | 51.4 µM (inactive) | 95.3 µM (inactive) | 45.3 µM (inactive) | > 100 µM (inactive) | 45.3 µM (inactive) | 97.7 µM (inactive) | > 100 µM (inactive) | 47.1 µM (inactive) | 33.5 µM (inactive) | 61.1 µM (inactive) | 51.5 µM (inactive) |
| CO[C@]12C[C@H](CNC(=O)c3cc(Br)c(Br)[nH]3)O[C@H]1NC(=O)N2 | > 100 µM (inactive) | > 100 µM (inactive) | > 100 µM (inactive) | > 100 µM (inactive) | > 100 µM (inactive) | > 100 µM (inactive) | > 100 µM (inactive) | > 100 µM (inactive) | > 100 µM (inactive) | > 100 µM (inactive) | > 100 µM (inactive) | > 100 µM (inactive) | > 100 µM (inactive) | > 100 µM (inactive) | > 100 µM (inactive) | > 100 µM (inactive) | > 100 µM (inactive) | > 100 µM (inactive) | > 100 µM (inactive) | > 100 µM (inactive) |

Reference: ChEMBL document CHEMBL1201862, “PubChem BioAssay data set” (2004)
